Results on one molecule are retold here after patent US20180051257A1, “METHODS FOR GENERATING ALVEOLAR TYPE II CELLS” (priority 2016, published 2018).

Test [1] concerns RB20 mESCs. Nature of the test: Foxa2 protein expression in mESC-derived DE cells by flow cytometric analysis. Format: cell-based, mouse. The following applies: mESC-derived DE cells vs mESCs. The text has this: (§1) To produce endoderm (DE) like cells, RB20 mESCs (embryonic stem cells) were maintained in adherent culture conditions on gelatin-coated dishes, prior to induction of differentiation. As depicted in FIG. 2, an overview of the mESCs maintenance and differentiation protocol. Differentiation of the cells was initiated via a reduction in concentration of KoSR; after three days, cells were induced by IDE2 for six days. In the next step, DE cells differentiated into alveolar type II-like (AT II-like) cells using seven different combinations of three inductive factors: FGF2 (F), hydrocortisone (H) and A549 conditioned medium (CM) during 9 days. The mESCs were cultured in media with reducing concentration of serum for 3 days, for example, 20%, 10% and 5% fetal bovine serum (FBS) in day one, two and three, respectively. Then, it was induced by 200 nM small inducing molecule IDE2 for 6 days. At the end of this first step, DE like cells were characterized for the expression of two DE markers, Sox17 and Foxa2.
Lack of expression of Foxa2 could be seen in mESC cells.

For test [2], the system named is RB20 mESCs. The test is described as follows: Induction of mESCs to definitive endoderm (DE)-like cells by IDE2: RT-PCR of DE markers and phase contrast morphology. Format: cell-based, mouse.
From the text: as §1
The morphology of the said markers in the DE-like cells was assayed by phase contrast microscopy.

[3] abbreviates: 200 nM IDE2, day 6, compared to mESCs negative control group, P<0.05.

Turning to `O=C(O)CCCCCC(=O)NN=C1CCCC1` [IDE2], in the test with RB20 mESCs [1], the “numbers of cells that expressed DE-specific marker Foxa2 at the protein level” value was “increase in numbers of cells”. In the test on RB20 mESCs [2] (setting [3]), the “expression level of Foxa2 (RT-PCR)” value is listed as “increased expression levels” and the “expression level of Sox 17 (RT-PCR)” value is “increased expression levels”. In the test with RB20 mESCs [2] (day 6 of IDE2 induction), the “cell morphology in phase contrast micrograph” value was “epithelial morphology characteristic of DE cells”.
